Results from the supplement of paper PMC7017272.
± gives the standard deviation of the averaged measurements.

Experiments:
Conditions in all cases: treatment time: 3 days
UT-SCC-40 [1] = experiment: drug sensitivity score (DSS); higher = more sensitive; extreme values may be limits of the assay
Method in brief: (§1)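 The FIMM pipeline was used to fit percent-inhibition dose–response curves, giving IC50, maximal inhibition and drug sensitivity score. Input data were CellTiter-Glo 2.0 luminescence readings, normalised to vehicle (0.1% DMSO) and cell-killing control wells, from HPV-negative HNSCC cell lines seeded at 500 cells/well in 384-well plates. Cells sat on plastic, on Matrigel or Myogel coatings (500 µg/mL), or within Matrigel or Myogel plus rat collagen I, and received compounds at five 10-fold concentrations for 3 days.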

UT-SCC-44 [2] = experiment: as above
Method in brief: as §1

UT-SCC-73 [3] = experiment: as above
Method in brief: as §1

UT-SCC-81 [4] = experiment: as above
Method in brief: as §1

UT-SCC-42B [5] = experiment: as above
Method in brief: as §1

UT-SCC-42A [6] = experiment: as above
Method in brief: as §1

UT-SCC-8 [7] = experiment: as above
Method in brief: as §1

UT-SCC-28 [8] = experiment: as above
Method in brief: as §1

UT-SCC-106A [9] = experiment: as above
Method in brief: as §1

UT-SCC-40 [10] = experiment: maximal % inhibition of viability relative to DMSO; higher = stronger effect
Method: (§2)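 HNSCC cell lines (500 cells/well, 384-well) were cultured on plastic, on top of (2D) or embedded (3D) in Matrigel or human leiomyoma matrix Myogel (500 ug/mL; Myogel 3D mixed with rat collagen I). Cells were treated for 3 days with 5 ten-fold concentrations of each drug, and viability was read by CellTiter-Glo. Viability was normalised to DMSO and benzethonium chloride controls and fitted with the FIMM DSRT pipeline to give IC50 (nM), maximal % inhibition and DSS. Suffixes _1/_2/_3 are replicates. Only inhibition-mode (IC50) fits are kept.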

UT-SCC-44 [11] = experiment: as above
Method: as §2

UT-SCC-73 [12] = experiment: as above
Method: as §2

UT-SCC-81 [13] = experiment: as above
Method: as §2

UT-SCC-42B [14] = experiment: as above
Method: as §2

UT-SCC-42A [15] = experiment: as above
Method: as §2

UT-SCC-8 [16] = experiment: as above
Method: as §2

UT-SCC-28 [17] = experiment: as above
Method: as §2

UT-SCC-14 = experiment: as above
Method: as §2

UT-SCC-106A [18] = experiment: as above
Method: as §2

UT-SCC-24B = experiment: as above
Method: as §2

[19] = culture condition: embedded in Matrigel
[20] = culture condition: embedded in Myogel + collagen I
[21] = culture condition: on top of Matrigel
[22] = culture condition: on top of Myogel
[23] = culture condition: plastic 2D (no matrix)

CC(=O)Nc1cccc(-n2c(=O)n(C3CC3)c(=O)c3c(Nc4ccc(I)cc4F)n(C)c(=O)c(C)c32)c1 [Trametinib]
drug sensitivity score (UT-SCC-40 [1]; [19]): 18.4 ± 4.2 DSS
drug sensitivity score (UT-SCC-40 [1]; [20]): 13.4 ± 2.6 DSS
drug sensitivity score (UT-SCC-40 [1]; [21]): 15.7 ± 2.8 DSS
drug sensitivity score (UT-SCC-40 [1]; [22]): 10.9 ± 1.8 DSS
drug sensitivity score (UT-SCC-40 [1]; [23]): 11.3 ± 3.5 DSS
drug sensitivity score (UT-SCC-44 [2]; [19]): 18.2 ± 0.7 DSS
drug sensitivity score (UT-SCC-44 [2]; [20]): 4.27 ± 1.7 DSS
drug sensitivity score (UT-SCC-44 [2]; [21]): 12.5 ± 1.8 DSS
drug sensitivity score (UT-SCC-44 [2]; [22]): 5.07 ± 3.6 DSS
drug sensitivity score (UT-SCC-44 [2]; [23]): 10.2 ± 1.6 DSS
drug sensitivity score (UT-SCC-73 [3]; [19]): 19.8 ± 3.1 DSS
drug sensitivity score (UT-SCC-73 [3]; [20]): 15.4 ± 3.3 DSS
drug sensitivity score (UT-SCC-73 [3]; [21]): 18.7 ± 3.7 DSS
drug sensitivity score (UT-SCC-73 [3]; [22]): 14.6 ± 1.9 DSS
drug sensitivity score (UT-SCC-73 [3]; [23]): 16.1 ± 3.1 DSS
drug sensitivity score (UT-SCC-81 [4]; [19]): 31.1 ± 6 DSS
drug sensitivity score (UT-SCC-81 [4]; [20]): 3.93 ± 0.58 DSS
drug sensitivity score (UT-SCC-81 [4]; [21]): 18.2 ± 2.1 DSS
drug sensitivity score (UT-SCC-81 [4]; [22]): 4.77 ± 4 DSS
drug sensitivity score (UT-SCC-81 [4]; [23]): 7.57 ± 2.1 DSS
drug sensitivity score (UT-SCC-42B [5]; [19]): 17.6 ± 2.3 DSS
drug sensitivity score (UT-SCC-42B [5]; [21]): 9.67 ± 0.84 DSS
drug sensitivity score (UT-SCC-42B [5]; [22]): 1.4 ± 1.4 DSS
drug sensitivity score (UT-SCC-42B [5]; [23]): 3.77 ± 2.9 DSS
drug sensitivity score (UT-SCC-42A [6]; [19]): 7.6 ± 5.4 DSS
drug sensitivity score (UT-SCC-42A [6]; [20]): 2.57 ± 2.8 DSS
drug sensitivity score (UT-SCC-42A [6]; [21]): 10.5 ± 0.9 DSS
drug sensitivity score (UT-SCC-42A [6]; [22]): 6.97 ± 0.8 DSS
drug sensitivity score (UT-SCC-42A [6]; [23]): 5.87 ± 3.6 DSS
drug sensitivity score (UT-SCC-8 [7]; [19]): 9.37 ± 3.3 DSS
drug sensitivity score (UT-SCC-8 [7]; [20]): 3.9 ± 6.8 DSS
drug sensitivity score (UT-SCC-8 [7]; [21]): 6.63 ± 5 DSS
drug sensitivity score (UT-SCC-8 [7]; [22]): 4.7 ± 4 DSS
drug sensitivity score (UT-SCC-8 [7]; [23]): 4.93 ± 4 DSS
drug sensitivity score (UT-SCC-28 [8]; [19]): 5.9 ± 1.1 DSS
drug sensitivity score (UT-SCC-28 [8]; [20]): 3.83 ± 3.9 DSS
drug sensitivity score (UT-SCC-28 [8]; [21]): 7.33 ± 3.5 DSS
drug sensitivity score (UT-SCC-28 [8]; [23]): 4.33 ± 1.3 DSS
drug sensitivity score (UT-SCC-106A [9]; [19]): 15.3 ± 2.4 DSS
drug sensitivity score (UT-SCC-106A [9]; [20]): 0.6 ± 0.6 DSS
drug sensitivity score (UT-SCC-106A [9]; [21]): 16.9 ± 1.2 DSS
drug sensitivity score (UT-SCC-106A [9]; [22]): 3.1 ± 2.4 DSS
drug sensitivity score (UT-SCC-106A [9]; [23]): 17.3 ± 0.72 DSS
maximal % inhibition of viability (UT-SCC-40 [10]; [19]): 78.07 ± 0.4%
maximal % inhibition of viability (UT-SCC-40 [10]; [20]): 61.7 ± 4.8%
maximal % inhibition of viability (UT-SCC-40 [10]; [21]): 71.7 ± 2.8%
maximal % inhibition of viability (UT-SCC-40 [10]; [22]): 51.9 ± 1.5%
maximal % inhibition of viability (UT-SCC-40 [10]; [23]): 52.2 ± 7.5%
maximal % inhibition of viability (UT-SCC-44 [11]; [19]): 66.8 ± 1.4%
maximal % inhibition of viability (UT-SCC-44 [11]; [20]): 23 ± 2.4%
maximal % inhibition of viability (UT-SCC-44 [11]; [21]): 46.1 ± 8.3%
maximal % inhibition of viability (UT-SCC-44 [11]; [22]): 28.4 ± 11%
maximal % inhibition of viability (UT-SCC-44 [11]; [23]): 41.1 ± 9%
maximal % inhibition of viability (UT-SCC-73 [12]; [19]): 81.2 ± 1.7%
maximal % inhibition of viability (UT-SCC-73 [12]; [20]): 62.8 ± 12%
maximal % inhibition of viability (UT-SCC-73 [12]; [21]): 76.9 ± 0.9%
maximal % inhibition of viability (UT-SCC-73 [12]; [22]): 63.3 ± 3.6%
maximal % inhibition of viability (UT-SCC-73 [12]; [23]): 70.53 ± 0.25%
maximal % inhibition of viability (UT-SCC-81 [13]; [19]): 84.9 ± 2.4%
maximal % inhibition of viability (UT-SCC-81 [13]; [20]): 24.5 ± 2.6%
maximal % inhibition of viability (UT-SCC-81 [13]; [21]): 78.6 ± 2.9%
maximal % inhibition of viability (UT-SCC-81 [13]; [22]): 27.8 ± 11%
maximal % inhibition of viability (UT-SCC-81 [13]; [23]): 44.1 ± 8.9%
maximal % inhibition of viability (UT-SCC-42B [14]; [19]): 67.8 ± 4.4%
maximal % inhibition of viability (UT-SCC-42B [14]; [21]): 52.2 ± 7.1%
maximal % inhibition of viability (UT-SCC-42B [14]; [22]): 20.8 ± 7.8%
maximal % inhibition of viability (UT-SCC-42B [14]; [23]): 28.8 ± 8%
maximal % inhibition of viability (UT-SCC-42A [15]; [19]): 45.4 ± 0.67%
maximal % inhibition of viability (UT-SCC-42A [15]; [20]): 22.1 ± 5.4%
maximal % inhibition of viability (UT-SCC-42A [15]; [21]): 50.3 ± 4.1%
maximal % inhibition of viability (UT-SCC-42A [15]; [22]): 29.4 ± 6.9%
maximal % inhibition of viability (UT-SCC-42A [15]; [23]): 34.7 ± 3.8%
maximal % inhibition of viability (UT-SCC-8 [16]; [19]): 61.3 ± 18%
maximal % inhibition of viability (UT-SCC-8 [16]; [20]): 24.5 ± 29%
maximal % inhibition of viability (UT-SCC-8 [16]; [21]): 47.3 ± 24%
maximal % inhibition of viability (UT-SCC-8 [16]; [22]): 41.1 ± 19%
maximal % inhibition of viability (UT-SCC-8 [16]; [23]): 43 ± 23%
maximal % inhibition of viability (UT-SCC-28 [17]; [19]): 36.7 ± 7.8%
maximal % inhibition of viability (UT-SCC-28 [17]; [20]): 29.7 ± 26%
maximal % inhibition of viability (UT-SCC-28 [17]; [21]): 35.1 ± 7.7%
maximal % inhibition of viability (UT-SCC-28 [17]; [23]): 21.1 ± 4.4%
maximal % inhibition of viability (UT-SCC-14; [19]): 43.2 ± 5.3%
maximal % inhibition of viability (UT-SCC-14; [20]): 31 ± 10%
maximal % inhibition of viability (UT-SCC-14; [21]): 37.1 ± 8.6%
maximal % inhibition of viability (UT-SCC-14; [22]): 22.9 ± 3%
maximal % inhibition of viability (UT-SCC-14; [23]): 24 ± 8.8%
maximal % inhibition of viability (UT-SCC-106A [18]; [19]): 51.5 ± 3.2%
maximal % inhibition of viability (UT-SCC-106A [18]; [20]): 15.1 ± 2.8%
maximal % inhibition of viability (UT-SCC-106A [18]; [21]): 61.8 ± 3.4%
maximal % inhibition of viability (UT-SCC-106A [18]; [22]): 23.2 ± 8.1%
maximal % inhibition of viability (UT-SCC-106A [18]; [23]): 63.5 ± 1.5%
maximal % inhibition of viability (UT-SCC-24B; [19]): 67.1 ± 3.1%
maximal % inhibition of viability (UT-SCC-24B; [20]): 66.5 ± 3.8%
maximal % inhibition of viability (UT-SCC-24B; [21]): 67.53 ± 0.29%
maximal % inhibition of viability (UT-SCC-24B; [22]): 59.1 ± 4.8%
maximal % inhibition of viability (UT-SCC-24B; [23]): 78.8 ± 1.7%
